Test results: patent US20250230193A1, “CYCLIC COMPOUND HAVING SELECTIVE KRAS INHIBITORY EFFECT ON HRAS AND NRAS” (CHUGAI SEIYAKU KABUSHIKI KAISHA, priority 2022, published 2025)

Assays:
[1] = molecular target: GDP-bound HRAS wild-type protein (Homo sapiens, UniProt P01112); assay: Binding to HRAS by surface plasmon resonance (SPR), Single Cycle Kinetics
[2] = molecular target: GDP-bound NRAS wild-type protein (Homo sapiens, UniProt P01111); assay: Binding to NRAS by surface plasmon resonance (SPR), Single Cycle Kinetics
GDP-bound NRAS wild-type protein, sequence (P01111 whole entry): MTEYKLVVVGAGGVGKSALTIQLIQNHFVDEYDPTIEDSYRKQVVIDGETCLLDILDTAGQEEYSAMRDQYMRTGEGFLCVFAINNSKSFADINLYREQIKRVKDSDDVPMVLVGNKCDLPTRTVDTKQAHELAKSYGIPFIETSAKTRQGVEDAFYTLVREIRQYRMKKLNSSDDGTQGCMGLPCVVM

[3] = KD ratio, GDP-bound HRAS wild-type vs GDP-bound KRAS wild-type, SPR
[4] = KD ratio, GDP-bound NRAS wild-type vs GDP-bound KRAS wild-type, SPR

GDP-bound HRAS wild-type protein, sequence (P01112 whole entry): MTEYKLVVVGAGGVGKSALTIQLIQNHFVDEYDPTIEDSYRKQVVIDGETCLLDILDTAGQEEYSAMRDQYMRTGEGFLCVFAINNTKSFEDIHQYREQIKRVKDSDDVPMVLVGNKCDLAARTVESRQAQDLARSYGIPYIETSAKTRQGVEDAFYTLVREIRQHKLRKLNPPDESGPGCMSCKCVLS

Compound	HRAS/KRAS (ratio of KD value with respect to HRAS to KD value with respect to KRAS) [1, 3]	NRAS/KRAS (ratio of KD value with respect to NRAS to KD value with respect to KRAS) [2, 4]	also measured
CCC[C@H]1C(=O)N[C@@H]([C@@H](C)CC)C(=O)N(C)CC(=O)N(C)[C@H]2C/C=C\CCN(C2=O)[C@@H](Cc2ccc(C(F)(F)F)cc2)C(=O)N(C)CC(=O)N[C@@H](CCc2cc(Cl)c3c(ccn3C)c2)C(=O)N2C[C@H](OCC)C[C@H]2C(=O)NC2(CC(C)(C)C2)C(=O)N(C)[C@@H](C2CCCC2)C(=O)N(C)[C@H](C(=O)N(C)C)CC(=O)N1C [PP2950]	–	–	HRAS/KRAS (ratio of KD value with respect to GDP-bound HRAS wild-type protein to KD value with respect to KRAS) ([1]; KD ratio HRAS/KRAS, class symbols): A (a compound having 10 or more and less than 20 is denoted as A); NRAS/KRAS (ratio of KD value with respect to GDP-bound NRAS wild-type protein to KD value with respect to KRAS) ([2]; KD ratio NRAS/KRAS, class symbols): A (a compound having 10 or more and less than 20 is denoted as A)
CCO[C@@H]1C[C@H]2C(=O)NC3(CCC3)C(=O)N(C)[C@@H](C3CCCC3)C(=O)N(C)[C@H](C(=O)N(C)C)CC(=O)N(C)[C@@H](CC)C(=O)N[C@@H]([C@@H](C)CC)C(=O)N3CC[C@@H]3C(=O)N(C)[C@H]3C/C=C\CCN(C3=O)[C@@H](Cc3ccc(C(F)(F)F)cc3)C(=O)N(C)CC(=O)N[C@@H](CCc3cc(F)c(C(F)(F)F)c(F)c3)C(=O)N2C1 [PP1064]	A (a compound having 10 or more and less than 20 is denoted as A)	A (a compound having 10 or more and less than 20 is denoted as A)	–
CCCN(C)C(=O)[C@@H]1CC(=O)N(C)[C@@H](CC(C)C)C(=O)N[C@@H]([C@@H](C)OC)C(=O)N(C)CC(=O)N(C)[C@H]2C/C=C\CCN(C2=O)[C@@H](Cc2ccc(C(F)(F)F)cc2)C(=O)N(C)CC(=O)N[C@@H](CCc2cc(F)c(C(F)(F)F)c(F)c2)C(=O)N2C[C@H](OCC)C[C@H]2C(=O)NC2(CC(C)(C)C2)C(=O)N(C)[C@@H](C2CCCC2)C(=O)N1C [PP1917]	–	–	HRAS/KRAS (ratio of KD value for HRAS to KD value for KRAS) [1, 3]: A (a compound having 10 or more and less than 20 is denoted as A); NRAS/KRAS (ratio of KD value for NRAS to KD value for KRAS) [2, 4]: A (a compound having 10 or more and less than 20 is denoted as A)
CCO[C@@H]1C[C@H]2C(=O)NC3(CCC3)C(=O)N(C)[C@@H](C3CCCC3)C(=O)N(C)[C@H](C(=O)N3CCOCC3)CC(=O)N(C)[C@@H](Cc3cccc(F)c3)C(=O)N[C@@H]([C@@H](C)CC)C(=O)N(C)CC(=O)N(C)[C@H]3CCCCCN(C3=O)[C@@H](Cc3ccc(C(F)(F)F)cc3)C(=O)N(C)CC(=O)N[C@@H](CCc3cc(F)c(C(F)(F)F)c(F)c3)C(=O)N2C1 [PP0856]	B (a compound having 3 or more and less than 10 is denoted as B)	B (a compound having 3 or more and less than 10 is denoted as B)	–
CCO[C@@H]1C[C@H]2C(=O)NC3(CCC3)C(=O)N(C)[C@@H](C3CCCC3)C(=O)N(C)[C@H](C(=O)N(C)C)CC(=O)N(C)[C@@H](CC)C(=O)N[C@@H]([C@@H](C)CC)C(=O)N(C)CC(=O)N(C)[C@H]3CCCCCN(C3=O)[C@@H](Cc3ccc(C(F)(F)F)cc3)C(=O)N(C)CC(=O)N[C@@H](CCc3c(F)c(F)c(C(F)(F)F)c(F)c3F)C(=O)N2C1 [PP0891]	B (a compound having 3 or more and less than 10 is denoted as B)	B (a compound having 3 or more and less than 10 is denoted as B)	–
CC[C@H](C)[C@@H]1NC(=O)[C@H](COC)N(C)C(=O)C[C@@H](C(=O)N(C)CC)N(C)C(=O)[C@H](C2CCCC2)N(C)C(=O)C2(CC(C)(C)C2)NC(=O)[C@@H]2C[C@H](C)CN2C(=O)[C@H](CCc2ccc(C(F)(F)F)c(Cl)c2)NC(=O)CN(C)C(=O)[C@H](Cc2ccc(C)cc2)N2CC/C=C\C[C@@H](C2=O)N(C)C(=O)CN(C)C1=O [PP2506]	–	–	HRAS/KRAS (ratio of KD value with respect to HRAS to KD value with respect to KRAS) ([1]; SPR, GDP-bound HRAS wild-type vs GDP-bound KRAS wild-type): A (a compound having 10 or more and less than 20 is denoted as A); NRAS/KRAS (ratio of KD value with respect to NRAS to KD value with respect to KRAS) ([2]; SPR, GDP-bound NRAS wild-type vs GDP-bound KRAS wild-type): A (a compound having 10 or more and less than 20 is denoted as A)
